Source: publication PMC7037447, “Syntheses of L-Rhamnose-Linked Amino Glycerolipids and Their Cytotoxic Activities against Human Cancer Cells” (Molecules, 2020)
Like-named read-outs stand apart in the source and are kept apart here.

Columns and labels:
[1] = Hemolytic assay; format: cell-based; conditions: sheep, ovine erythrocytes (washed suspension), pH 7.4, relative to 1% ammonium hydroxide = 100%, read-out: Highest hemolysis observed
Method: To further evaluate the membrane lytic properties of compound 3, we investigated its capacity to lyse ovine erythrocytes. The highest hemolysis observed with compound 3 was about 6.6% at 100 µM compared to the 1% ammonium hydroxide positive control (Figure 6).
The hemolytic activity of the GAEL analogs was evaluated using ovine erythrocyte. Sheep whole blood was collected from a slaughter house into a vessel containing disodium EDTA ([…]) in a buffered saline (10 mM Tris, 150 mM NaCl, pH 7.4). The erythrocytes were prepared and washed with buffered saline as previously reported. For the assay, the erythrocyte suspension, varying amounts of the GAEL drugs or vehicle were pipetted into 1.5 mL microcentrifuge tubes to give a final volume of 1500 µL and cell density of 2.5 × 10^8 cells/mL. The suspensions were incubated with gentle shaking in Eppendorf thermomixer for 30 min. […] 200 µL of the supernatant was dissolved in 1800 µL of 0.5% NH4OH and the optical density (OD) was recorded using 1 mL cuvette at 540 nm in a spectrophotometer. […] The % hemolysis was calculated using the optical density (OD) values as shown below in Equation (1):% hemolysis = (X − 0%)/(100% − 0%)(1) where X is the OD values of the drug(s) at varying concentration.
Figure 6 Hemolytic properties of GAEL 3 using freshly isolated ovine erythrocytes. […] The values were determined as % of control.

[2] = test system: BT474 (hormone receptor positive breast cancer cells); assay: MTS cell viability assay, 48 h; format: cell-based; conditions: Homo sapiens, BT-474
Method: (§1) Concentrations of compound 3 between 6–15 µM were sufficient to kill all the triple negative cell lines with the exception of MDA-MB-453 where viability was inhibited by 60% at the highest concentration tested. 30 µM of 3 was required for complete loss of viability of the hormone sensitive breast cancer BT474 cell line.
(§2) The cell lines were cultured from frozen stocks originally obtained from ATCC (Manassas, VA, USA). MDA-MB-231, JIMT-1, DU145, MDA-MB-468, Hs578t and MDA-MB-453 were grown in DMEM medium supplemented with 10% FBS. BT-474 cells were grown in DMEM/F12 medium supplemented with 10% FBS. MiaPaCa2 was cultured in DMEM supplemented with 10% FBS and 2.5% horse serum. All the media contained penicillin/streptomycin. U-251 and U-87 in Eagle MEM supplemented by 10% FBS, 1% Non-essential amino acids, 1 mM sodium pyruvate and 2 mM glutamine. BT-549 was cultured in RPMI 1640 medium supplemented with 10% FBS.
(§3) The effects of the GAELs on the viability of the epithelial cancer cell lines were determined as previously described. Briefly, equal numbers of the cells were dispersed into 96-well plates. After 24 h, the cells were incubated with the compounds (0–30 µM) for 48 h. […] (20% v/v) was subsequently added and the plates were incubated for 1–4 h in a CO2 incubator followed by measurement of the medium at OD490 with a plate reader (Molecular Devices). […]

[3] = test system: MDA-MB-453; assay: MTS cell viability assay, 48 h; format: cell-based, human
Method: as §1, §2, §3

[4] = test system: human epithelial cancer cell lines: breast (MDA-MB-231, JIMT-1), pancreas (MiaPaCa2) and prostate (DU-145, PC-3); assay: MTS cell viability assay, 48 h, across the panel of cell lines; format: cell-based; conditions: 48 h, 48 h, MTS; for CC50: range or bound over all cell lines, read-out: CC50 values across the cell lines
Method: The cells were incubated with increasing concentrations of the compounds (0–30 µM) for 48 h followed by assessment of cell viability using the MTS assay. […] This compound carries a primary amino group at the sn-3 position of the glycerolipid and L-rhamno sugar at the sn-2 position via an α-rhamnosidic linkage.
as §2
The effects of the GAELs on the viability of the epithelial cancer cell lines were determined as previously described. Briefly, equal numbers of the cells were dispersed into 96-well plates. After 24 h, the cells were incubated with the compounds (0–30 µM) for 48 h. MTS reagent [3-(4,5-dimethylthiazol-2-yl)-5-(3-carboxymethoxyphenyl)-2-(4-sulfophenyl)-2H-tetrazolium, inner salt; Promega, Madison, WI, USA] (20% v/v) was subsequently added and the plates were incubated for 1–4 h in a CO2 incubator followed by measurement of the medium at OD490 with a plate reader (Molecular Devices). Wells with media but no cells were treated in similar fashion and the values utilized as blank.

## CCCCCCCCCCCCCCCCOCC(CN)OC1OC(C)C(O)C(O)C1O [Compound 3, 3-Amino-1-O-hexadecyloxy-2R-(O–α-L-rhamnopyranosyl)-sn-glycerol]
[1]
  hemolysis at 30 min, 100 µM: ~6.6%
[2]
  CC50: 14 µM
[3]; Homo sapiens, MDA-MB-453
  CC50: 13.8 µM
[3]; MDA-MB-453, at the highest concentration tested
  Viability inhibited: 60%
[4]; Homo sapiens
  CC50: 4.8 to 14 µM
[4]; all the cell lines
  Concentration range giving greater than 90% loss of cell viability: 7.5 to 15.0 µM
[4]
  CC50: 4.8 to 11 µM
